This is an account of results in ChEMBL document CHEMBL1157005, “A new structural class of S-adenosylhomocysteine hydrolase inhibitors” (Bioorg Med Chem, 2009).

In assay [1] the target is T1, Adenosylhomocysteinase (Homo sapiens, UniProt P23526). Put plainly: Inhibition of S-adenosyl-L-homocysteine hydrolase after 10 mins by scintillation counting.
Target sequence in this assay (P23526 whole entry): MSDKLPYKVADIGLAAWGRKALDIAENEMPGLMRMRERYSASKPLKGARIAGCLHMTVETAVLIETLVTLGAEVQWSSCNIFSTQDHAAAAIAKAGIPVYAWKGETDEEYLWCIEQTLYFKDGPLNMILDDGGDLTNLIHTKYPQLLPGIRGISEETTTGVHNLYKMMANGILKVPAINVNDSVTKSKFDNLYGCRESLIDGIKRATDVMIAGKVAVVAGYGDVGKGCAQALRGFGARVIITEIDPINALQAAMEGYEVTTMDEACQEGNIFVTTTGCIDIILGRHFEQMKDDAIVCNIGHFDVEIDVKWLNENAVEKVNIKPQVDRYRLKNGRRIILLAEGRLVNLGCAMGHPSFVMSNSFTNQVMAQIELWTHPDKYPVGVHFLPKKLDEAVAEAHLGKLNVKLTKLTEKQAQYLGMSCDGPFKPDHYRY
Assay [2] concerns the target T2, Adenosylhomocysteinase (Rattus norvegicus, UniProt P10760).
T2 sequence (P10760 whole entry): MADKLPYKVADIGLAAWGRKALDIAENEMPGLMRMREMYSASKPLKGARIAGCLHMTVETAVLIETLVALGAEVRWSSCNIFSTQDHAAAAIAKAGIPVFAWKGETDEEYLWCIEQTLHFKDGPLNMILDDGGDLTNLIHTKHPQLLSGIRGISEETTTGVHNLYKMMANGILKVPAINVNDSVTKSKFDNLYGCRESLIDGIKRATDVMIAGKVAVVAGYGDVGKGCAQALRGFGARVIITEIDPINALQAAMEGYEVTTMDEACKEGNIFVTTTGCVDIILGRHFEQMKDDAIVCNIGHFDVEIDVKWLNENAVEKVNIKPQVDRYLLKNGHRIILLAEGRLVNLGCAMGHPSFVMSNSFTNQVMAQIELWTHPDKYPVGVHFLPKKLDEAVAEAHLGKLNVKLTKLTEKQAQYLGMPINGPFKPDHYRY
As to the kind of experiment: Inhibition of S-adenosyl-L-homocysteine hydrolase in intact rat hepatocytes. It counts as cell-based, Hepatocyte.

For assay [3], the target named is T1, Adenosylhomocysteinase. As to the kind of experiment: Inhibition of S-adenosyl-L-homocysteine hydrolase at 2 uM after 10 mins by scintillation counting.
Target sequence in this assay (P23526 2-432 limits assumed): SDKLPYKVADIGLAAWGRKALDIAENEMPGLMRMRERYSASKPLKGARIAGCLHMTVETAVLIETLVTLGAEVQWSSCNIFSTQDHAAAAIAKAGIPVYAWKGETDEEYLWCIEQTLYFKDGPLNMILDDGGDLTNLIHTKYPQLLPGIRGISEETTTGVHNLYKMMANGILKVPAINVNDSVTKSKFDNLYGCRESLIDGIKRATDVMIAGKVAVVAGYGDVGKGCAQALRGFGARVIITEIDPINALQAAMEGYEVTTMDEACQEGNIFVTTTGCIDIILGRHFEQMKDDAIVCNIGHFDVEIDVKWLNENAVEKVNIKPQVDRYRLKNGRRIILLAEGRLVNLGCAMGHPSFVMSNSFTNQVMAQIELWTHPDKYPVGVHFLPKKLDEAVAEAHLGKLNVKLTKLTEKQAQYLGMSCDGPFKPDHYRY
Assay [4] concerns the target T1, Adenosylhomocysteinase. Put plainly: Inhibition of S-adenosyl-L-homocysteine hydrolase at 50 uM after 10 mins by scintillation counting.
Target sequence in this assay (P23526 2-432 limits assumed): as above
For assay [5], the target named is Adenosylhomocysteinase (Plasmodium falciparum 3D7, UniProt P50250). As to the kind of experiment: Inhibition of Plasmodium falciparum S-adenosyl-homocysteine hydrolase.

pIC50: −log10 of the molar value.

Sequence of Adenosylhomocysteinase (Plasmodium falciparum 3D7, UniProt P50250) (P50250 whole entry): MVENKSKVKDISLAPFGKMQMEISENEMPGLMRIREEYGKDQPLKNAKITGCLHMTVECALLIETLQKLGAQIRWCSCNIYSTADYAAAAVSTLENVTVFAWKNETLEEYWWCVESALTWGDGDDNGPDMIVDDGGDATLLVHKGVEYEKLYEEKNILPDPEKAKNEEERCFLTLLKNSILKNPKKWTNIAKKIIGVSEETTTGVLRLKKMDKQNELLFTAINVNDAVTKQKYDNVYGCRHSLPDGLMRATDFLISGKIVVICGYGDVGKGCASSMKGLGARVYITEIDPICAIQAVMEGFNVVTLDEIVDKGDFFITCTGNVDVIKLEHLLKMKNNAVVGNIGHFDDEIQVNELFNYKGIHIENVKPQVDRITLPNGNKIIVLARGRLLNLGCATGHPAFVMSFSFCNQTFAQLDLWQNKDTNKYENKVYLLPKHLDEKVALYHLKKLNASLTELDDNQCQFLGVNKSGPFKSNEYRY

As to `Nc1ncnc2c1ncn2Cc1cc(OCC2CCCCC2)cc(O)c1O`, the pIC50 at Adenosylhomocysteinase [1] was 6.40. For `Nc1ncnc2c1ncn2C[C@@H](O)[C@@H](O)C(=O)O` [ERITADENINE], at Adenosylhomocysteinase [2], the pIC50 was 7.52. In the case of `Nc1ncnc2c1ncn2Cc1cc(O)c(O)c(OCc2ccccc2)c1`, the values for the inhibition on Adenosylhomocysteinase [3] and against Adenosylhomocysteinase [4] were 12% and 70%, respectively. Compound `Nc1ncnc2c1ncn2[C@@H]1C[C@H](O)[C@@H](O)[C@H]1O` [NORARISTEROMYCIN] showed a negative-log IC50 (pIC50) against Adenosylhomocysteinase [5] of 5.96. As for `C=C1[C@H](OC(=O)CCCCCNC(=O)OC(C)(C)C)CC[C@H]2[C@](C)(CC3=C(Cl)C(=O)C=C(OC)C3=O)[C@@H](C)CC[C@]12C`, the pIC50 against Adenosylhomocysteinase [1] is under 3.60. Same read-out and setting: in the case of `COC1=CC(=O)C(O)=C(C[C@@]2(C)[C@@H]3CCC[C@H](COC(=O)CCCCCNC(=O)OC(C)(C)C)[C@@]3(C)CC[C@@H]2C)C1=O` it was over 4.70. Turning to `Nc1ncnc2c1ncn2Cc1cc(O)c(O)c(OCC2CCCCC2)c1`, the inhibition against Adenosylhomocysteinase [3] was 17%; at Adenosylhomocysteinase [4], 74%. On Adenosylhomocysteinase [1], `C=C1CCC[C@H]2[C@](C)(CC3=C(O)C(=O)C=C(OC)C3=O)[C@@H](C)CC[C@]12C` [ILIMAQUINONE] had a pIC50 of 4.40. With `CCCCCOc1cc(Cn2cnc3c(N)ncnc32)cc(O)c1O`, the inhibition is 12% on Adenosylhomocysteinase [3] and 47% against Adenosylhomocysteinase [4].
